Experimental data as given in patent EP4610348A1, “HEPATOLENTICULAR DEGENERATION CELL, PREPARATION METHOD THEREFOR, AND EVALUATION METHOD THEREFOR” (GUANGXIU-GAOXIN LIFE SCIENCES CO., LTD. HUNAN, priority 2022, dated 2024).

What was measured:
Type in all cases: cell-based, human
normal hepatocytes = experiment: Effect of copper ion accumulation on cell viability (CCK-8); conditions: 48 hours
Procedure: (§1) 3.4 Effect of copper ion accumulation on cell viability: The induced cells were digested and evenly inoculated in a 96-well plate, with about 3×10^4 cells per well, and edge wells were filled with sterile PBS. After the cells were adhered to the wall, a copper sulfate or copper chloride solution in different concentrations (0 mM, 0.5 mM, 1 mM, and 1.5 mM) were added, and 6 replicate wells were set in each group. The wells without cells were set as blank wells. After incubation at 37°C for 48 hours (fresh culture medium was replaced every 22 hours to 26 hours), the original culture medium was discarded, and the cells were washed three times with DPBS. Fresh culture medium (100 µL per well) was added, and a 10 µL CCK-8 reaction solution was added to each well, followed by incubating at 37 °C in the dark for 4 hours. After the incubation, the absorbance at 450 nm was detected using a microplate reader.

[1] = tested on: hepatolenticular degeneration hepatocytes; experiment: as above; conditions: 48 hours
Procedure: as §1

[2] = tested on: ATP7B protein in hepatolenticular degeneration hepatocyte; experiment: Detection of ATP7B protein expression (Western blotting); conditions: after incubation with 100 µM to 300 µM copper sulfate or copper chloride
Procedure: (§2) 3.2 Detection of ATP7B protein expression: Cells on the last day of induction were collected, and ATP7B protein expression levels in the hepatocytes before and after incubation with 100 µM to 300 µM of copper sulfate or copper chloride were detected by Western blotting method, with GAPDH protein as the internal reference. The induced cells were digested and collected in a 1.5 mL EP tube. An appropriate amount of protein lysis buffer was added depending on the cell solution volume (adding 200 µL RIPA lysis buffer for 1×10^6 cells). The cell solution was pipetted up and down to mix, and the cells were lysed in an ice bath with an ultrasonic cell disruptor for 15 minutes, then centrifuged at 13000 ×g and 4°C for 10 minutes. The supernatant was transferred to a new EP tube, and the protein concentration was detected using a BCA protein quantification kit. Polyacrylamide gel for SDS-PAGE was prepared, including preparing an 8% separating gel and a stacking gel. After the stacking gel was solidified, the comb was carefully pulled out. After a 40 µg sample and a 5 µL protein marker were loaded, the electrophoresis started at a 110 V constant voltage. After the Loading Buffer ran out of the separating gel, the electrophoresis stopped. […]

[3] = tested on: ATP7B protein in normal hepatocyte; experiment: as above; conditions: after incubation with 100 µM to 300 µM copper sulfate or copper chloride
Procedure: as §2

[4] = tested on: ATP7B gene in normal hepatocytes; experiment: Detection of ATP7B gene expression (qPCR); conditions: after incubation with 100 µM to 300 µM copper sulfate or copper chloride
Procedure: (§3) 3.1 Detection of ATP7B gene expression: Cells on the last day of induction were collected, and ATP7B gene expression levels in the hepatocytes before and after incubation with 100 µM to 300 µM of copper sulfate or copper chloride were detected by qPCR method, with GAPDH gene as the internal reference. Primers were used for validation. The qPCR method was performed as follows: 95°C for 5 minutes; 45 cycles (94°C for 40 seconds, 54°C to 58°C for 10 seconds, 72°C for 10 seconds); and 72°C extension for 5 minutes.

[5] = tested on: ATP7B gene in hepatolenticular degeneration hepatocytes; experiment: Detection of ATP7B gene expression (qPCR); conditions: after incubation with 100 µM to 300 µM copper sulfate or copper chloride
Procedure: as §3

With `[Cu+2]` [copper ions] the cell viability (normal hepatocytes; 0.5 mM copper ions) was 95.33%, the cell viability (normal hepatocytes; 1 mM copper ions) was 83.78% and the cell viability (normal hepatocytes; 1.5 mM copper ions) was 73.53%. For the same molecule, the cell viability ([1]; 0.5 mM copper ions) was 93.25%, the cell viability ([1]; 1 mM copper ions) was 67.49% and the cell viability ([1]; 1.5 mM copper ions) was 34.8%. The “expression level of the ATP7B protein” value [2] was “still expresses a low level of the ATP7B protein”, the “expression level of the ATP7B protein” value [3] was “significantly increased” and the “expression level of the ATP7B gene” value [4] was “significantly upregulated”. For the same molecule, the “expression level of the ATP7B gene” value [5] was “not upregulated significantly”.
